# Assay results as given in US20070077283A1, “METHOD OF ENHANCING TRANSMUCOSAL DELIVERY OF THERAPEUTIC COMPOUNDS” (Nastech Pharmaceutical Company Inc., priority 2005, published 2007).
# How the values were obtained:
# [1] = test system: human-derived tracheal/bronchial epithelial cells (EpiAirway Tissue Model); experiment: in vitro
# Summary of the method: (§1)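 EpiAirway cultures treated 1 h with each lipid; PBS as negative control. LDH released apically and basolaterally measured colorimetrically at 490 nm after 30 min substrate incubation at room temperature. Cytotoxicity expressed as percent of 1% Triton X-100 lysis control, set to 100%.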
# [2] = in vitro
# Summary of the method: as §1
# [3] = test system: human-derived tracheal/bronchial epithelial cells (EpiAirway Tissue Model); experiment: Insulin permeation across epithelial cell monolayer; format: cell-based; details: for permeation of insulin (in words): 1000 μM in the presence of Buffer I and Buffer II
# Protocol: Also, the efficacy of a permeation enhancing lipid to enhance the permeation of insulin across and epithelial cell layer was measured. Refer to Example 2 of the instant application for general protocol details. […] Based on the FD3 permeation data in Table 8, the ability of the C16 PAF and C16 Enantiomeric PAF in the presence of Buffers I and II to enhance permeation of the biological agent insulin was assayed. Each lipid was tested at a 1000 μM concentration.
# [4] = test system: human-derived tracheal/bronchial epithelial cells (EpiAirway Tissue Model); experiment: Cell viability (MTT assay); format: cell-based; details: for effect on cell viability (MTT assay): compared with control Special Sauce, data not shown (Example 3); for MTT levels (cell viability): compared with PBS negative control (Example 5)
# Protocol: (§2) Cell viability will be assessed using the MTT assay (MTT-100, MatTek kit). This kit measures the uptake and transformation of tetrazolium salt to formazan dye. Thawed and diluted MTT concentrate is prepared 1 hour prior to the end of the dosing period with the lipid by mixing 2 mL of MTT concentrate with 8 mL of MTT diluent. Each cell culture insert is washed twice with PBS containing Ca^+2 and Mg^+2 and then transferred to a new 96-well transport plate containing 100 μL of the mixed MTT solution per well. This 96-well transport plate is then incubated for three hours at 37° C. and 5% CO2. After the three hour incubation, the MTT solution is removed and the cultures are transferred to a second 96-well feeder tray containing 250 μL MTT extractant solution per well. An additional 150 μL of MTT extractan solution was added to the surface of each culture well and the samples sat at room temperature in the dark for a minimum of two hours and maximum of 24 hours. The insert membrane was then pierced with a pipet tip and the solutions in the upper and lower wells were allowed to mix. Two hundred microliters of the mixed extracted solution along with extracted blanks (negative control) was transferred to a 96-well plate for measurement with a microplate reader. The optical density (OD) of the samples was measured at 570 nm with the background subtraction at 650 nm on a plate reader. Cell viability was expressed as a percentage and calculated by dividing the OD readings for treated inserts by the OD readings for the PBS treated inserts and multiplying by 100. For the purposes of this assay, it was assumed that PBS had no effect on cell viability and therefore represented 100% cell viability.
# [5] = test system: human-derived tracheal/bronchial epithelial cells (EpiAirway Tissue Model); experiment: Peptide YY (PYY) permeation across epithelial cell monolayer; format: cell-based
# Protocol: Permeation is expressed as percent permeation and was calculated as follows: [formula] [formula] Terms
# In the instant example, the ability of permeation enhancing lipids to enhance the permeation of the biological agent, peptide YY (PYY; molecular weight of 3.7 kDa) across the epithelial cell monolayer model system (EpiAirway™) was measured. Also, the efficacy of a permeation enhancing lipid to enhance the permeation of insulin across and epithelial cell layer was measured. Refer to Example 2 of the instant application for general protocol details.
# [6] = Cell viability (MTT assay); format: cell-based, human; details: human; PN159 25 μM / PYY 13.67 mg/mL (High)
# Protocol: as §2
# [7] = in the presence of FITC-Dextran FD3 (Table 6)
# [8] = in the presence of FITC-Dextran FD10 (Table 6)
# [9] = in the presence of FITC-Dextran FD40 (Table 6)
# [10] = in the presence of FITC-Dextran FD70 (Table 6)
# [11] = in the presence of FITC-Dextran FD500 (Table 6)
# [12] = % Cytotoxicity, lipid 1000 μM in Buffer I, apical LDH release
# [13] = % Cytotoxicity, lipid 1000 μM in Buffer II, apical LDH release
# [14] = lipid 500 μM / PYY 13.67 mg/mL (High)
structure (smiles),measurement,setting,value
"CCCCCCCCCCCCCCCCOC[C@@H](COP(=O)([O-])OCC[N+](C)(C)C)OC(C)=O [C16 Enantiomeric PAF, 3-O-Hexadecyl-2-Acetoyl-sn-Glycero-1-Phosphocholine]",% Relative Cytotoxic Effect (LDH),[1]; [7],34%
same,% Relative Cytotoxic Effect (LDH),[1]; [8],32%
same,% Relative Cytotoxic Effect (LDH),[1]; [9],36%
same,% Relative Cytotoxic Effect (LDH),[1]; [10],31%
same,% Relative Cytotoxic Effect (LDH),[1]; [11],33%
same,Mean % Relative Cytotoxic Effect (LDH),[1]; lipid 1000 μM (Table 4),35%
same,"cytotoxicity at 1 h, 1000 μM",[2]; [12],34%
same,"cytotoxicity at 1 h, 1000 μM",[2]; [13],14%
same,permeation of insulin (in words),[3],enhance the permeation of insulin across an epithelial cell monolayer
same,% Insulin Permeation,[3]; lipid 1000 μM in Buffer I,3%
same,% Insulin Permeation,[3]; lipid 1000 μM in Buffer II,8%
"CCCCCCCCCCCCCCCCOC[C@H](COP(=O)([O-])OCC[N+](C)(C)C)OC(C)=O [C16-02:0 PC(C16 PAF), 1-O-Hexadecyl-2-Acetoyl-sn-Glycero-3-Phosphocholine]",% Relative Cytotoxic Effect (LDH),[1]; [7],32%
same,% Relative Cytotoxic Effect (LDH),[1]; [8],35%
same,% Relative Cytotoxic Effect (LDH),[1]; [9],31%
same,% Relative Cytotoxic Effect (LDH),[1]; [10],35%
same,% Relative Cytotoxic Effect (LDH),[1]; [11],26%
same,Mean % Relative Cytotoxic Effect (LDH),[1]; lipid 500 μM (Table 4),20%
same,Mean % Relative Cytotoxic Effect (LDH),[1]; lipid 1000 μM (Table 4),32%
same,"cytotoxicity at 1 h, 1000 μM",[2]; [12],43%
same,"cytotoxicity at 1 h, 1000 μM",[2]; [13],13%
same,cytotoxicity at 1 h,"[2]; % Cytotoxicity, lipid / PYY 10 mg/mL",23%
same,permeation of insulin (in words),[3],enhance the permeation of insulin across an epithelial cell monolayer
same,permeation of insulin,[3]; lipid 1000 μM (Example 6),more than 3%
same,% Insulin Permeation,[3]; lipid 1000 μM in Buffer I,4%
same,% Insulin Permeation,[3]; lipid 1000 μM in Buffer II,8%
same,% Insulin Permeation,[3]; lipid 1000 μM in PBS,3%
same,effect on cell viability (MTT assay),[4],did not reduce cell viability below that of Special Sauce
C=CCC(=O)O[C@H](COCCCCCCCCCCCCCCCC)COP(=O)([O-])OCC[N+](C)(C)C [C16-04:1 PC],Mean % Relative Cytotoxic Effect (LDH),"[1]; human, 1 h, 500 μM",18%
same,Mean % Relative Cytotoxic Effect (LDH),"[1]; human, 1 h, 1000 μM",27%
same,effect on cell viability (MTT assay),[4],did not reduce cell viability below that of Special Sauce
"CCCCCCCCCCCCCCCCCCOC[C@H](COP(=O)([O-])OCC[N+](C)(C)C)OC(C)=O [C18-02:0 PC(C18 PAF), 1-O-Octadecyl-2-Acetoyl-sn-Glycero-3-Phosphocholine]",Mean % Relative Cytotoxic Effect (LDH),"[1]; human, 1 h, 500 μM",8%
same,% Cytotoxicity,"[1]; human, 1 h, 1000 μM",17%
same,Mean % Relative Cytotoxic Effect (LDH),"[1]; human, 1 h, 1000 μM",20%
same,"cytotoxicity at 1 h, 1000 μM","[2]; human, % Cytotoxicity",33%
same,effect on cell viability (MTT assay),[4],did not reduce cell viability below that of Special Sauce
"CCCCCCCCCCCCCCCC(=O)OC[C@H](COP(=O)([O-])OCC[N+](C)(C)C)OC(=O)CCCC(=O)O [PGPC, 1-Palmitoyl-2-Glutaroyl-sn-Glycero-3-Phosphocholine]",LDH levels,"[1]; human, 1 h",below 30%
same,Cytotoxic Effect (LDH) 1 hr. Post-treatments,"[1]; human, 1 h, 62.5 μM",2%
same,Cytotoxic Effect (LDH) 1 hr. Post-treatments,"[1]; human, 1 h, 125 μM",2%
same,Cytotoxic Effect (LDH) 1 hr. Post-treatments,"[1]; human, 1 h, 250 μM",4%
same,Cytotoxic Effect (LDH) 1 hr. Post-treatments,"[1]; human, 1 h, 500 μM",13%
same,Cytotoxic Effect (LDH) 1 hr. Post-treatments,"[1]; human, 1 h, 1000 μM",21%
same,"cytotoxicity at 1 h, 500 μM","[2]; human, % Cytotoxicity",2%
same,% PYY Permeation,[5]; [14],0.13%
same,MTT levels (cell viability),[4],MTT levels comparable to that of the PBS negative control
same,% Cell Viability,[4]; [14],113%
"CC(C)C[C@H](NC(=O)[C@H](C)NC(=O)[C@H](CCCCN)NC(=O)[C@H](CC(C)C)NC(=O)[C@H](C)NC(=O)[C@H](CC(C)C)NC(=O)[C@H](CCCCN)NC(=O)[C@H](CC(C)C)NC(=O)[C@H](C)NC(=O)[C@H](CC(C)C)NC(=O)[C@@H](N)CCCCN)C(=O)N[C@@H](CCCCN)C(=O)N[C@@H](C)C(=O)N[C@@H](C)C(=O)N[C@@H](CC(C)C)C(=O)N[C@@H](CCCCN)C(=O)N[C@@H](CC(C)C)C(=O)N[C@@H](C)C(N)=O [PN159, reference compound]","cytotoxicity at 1 hour, 25 μM",[2],33%
same,% PYY Permeation,[5]; PN159 25 μM / PYY 13.67 mg/mL (High),3.71%
same,viability at 25 µM,[6],89%
"CCCCCCCCCCCCCCCC(=O)OC[C@H](COP(=O)([O-])OCC[N+](C)(C)C)OC(=O)CCCC=O [POVPC, 1-Palmitoyl-2-(5′-oxo-Valeroyl)-sn-Glycero-3-Phosphocholine]",% Relative Cytotoxic Effect (LDH),[1]; [7],19%
same,% Relative Cytotoxic Effect (LDH),[1]; [8],11%
same,% Relative Cytotoxic Effect (LDH),[1]; [9],13%
same,% Relative Cytotoxic Effect (LDH),[1]; [10],13%
same,% Relative Cytotoxic Effect (LDH),[1]; [11],12%
same,Cytotoxic Effect (LDH) 1 hr. Post-treatments,"[1]; lipid 62.5 μM, percent of Triton-X100 LDH levels",2%
same,Cytotoxic Effect (LDH) 1 hr. Post-treatments,"[1]; lipid 125 μM, percent of Triton-X100 LDH levels",2%
same,Cytotoxic Effect (LDH) 1 hr. Post-treatments,"[1]; lipid 250 μM, percent of Triton-X100 LDH levels",5%
same,Cytotoxic Effect (LDH) 1 hr. Post-treatments,"[1]; lipid 500 μM, percent of Triton-X100 LDH levels",11%
same,Mean % Relative Cytotoxic Effect (LDH),[1]; lipid 1000 μM (Table 4),9%
same,LDH levels for each incubation time period,"[1]; lipid 1000 μM, 15, 30 and 60 minute incubation",below 10%
same,Cytotoxic Effect (LDH) 1 hr. Post-treatments,"[1]; lipid 1000 μM, percent of Triton-X100 LDH levels",21%
same,"cytotoxicity at 1 h, 1000 μM",[2]; [12],15%
same,"cytotoxicity at 1 h, 1000 μM",[2]; [13],15%
same,MTT levels (cell viability),[4],MTT levels comparable to that of the PBS negative control
same,effect on cell viability (MTT assay),[4],did not reduce cell viability below that of the control Special Sauce
